Bounds are passed on as bounds.

Results on 45 compounds are retold here after patent publication US11452717B2, “Small molecule activators of nicotinamide phosphoribosyltransferase (NAMPT) and uses thereof” (Sanford Burnham Prebys Medical Discovery Institute, priority 2017, dated 2022).

The test concerns the target NAMPT enzyme (Homo sapiens (Human), UniProt P43490). Briefly: Enzyme Assay and NMN Detection (NAMPT reaction, fluorescence detection of NMN). The class given is biochemical. The conditions noted are these: NAMPT activation, NMN formation. The procedure, abridged: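 NMN formed was read at ex380/em460 after acetophenone/KOH derivatization and formic acid addition, using a same-day calibration curve. Final conditions: NAMPT 16 nM, nicotinamide 5 uM, PRPP 6.25 uM, ATP 120 uM, pyrophosphatase 0.04 U/ml, pH 7.5 HEPES buffer with MgCl2 and TCEP, 2 h at room temperature.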

NAMPT enzyme, sequence (P43490 whole entry, species assumed): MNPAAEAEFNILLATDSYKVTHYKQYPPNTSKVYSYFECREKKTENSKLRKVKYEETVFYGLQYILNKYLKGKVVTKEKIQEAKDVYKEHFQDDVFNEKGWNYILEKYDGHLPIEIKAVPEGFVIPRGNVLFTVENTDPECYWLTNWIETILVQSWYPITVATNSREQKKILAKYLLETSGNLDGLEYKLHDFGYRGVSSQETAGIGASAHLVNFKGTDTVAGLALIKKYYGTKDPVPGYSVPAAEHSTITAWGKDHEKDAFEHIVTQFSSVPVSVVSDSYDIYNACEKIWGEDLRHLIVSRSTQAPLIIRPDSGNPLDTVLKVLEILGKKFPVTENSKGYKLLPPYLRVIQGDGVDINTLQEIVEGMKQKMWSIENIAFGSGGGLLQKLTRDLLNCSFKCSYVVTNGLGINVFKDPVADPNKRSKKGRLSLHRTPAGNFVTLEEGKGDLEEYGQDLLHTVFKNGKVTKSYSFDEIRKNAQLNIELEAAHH

For the compound `Cc1ccc(NC(=O)NCc2ccncc2)cc1` [1-(Pyridin-4-ylmethyl)-3-(p-tolyl)urea], the EC50 (in general, the concentration at which the effect is half-maximal) (Table B-2) was more than 20000 nM. Compound `O=C(NCc1cnco1)Nc1ccc(S(=O)(=O)c2ccccc2C(F)(F)F)cc1` [1-Oxazol-5-ylmethyl-3-[4-(2-trifluoromethyl-benzenesulfonyl)-phenyl]-urea] had an EC50 (Table B-5) of 100 to 2000 nM. On the same count and under the same terms, as for `O=C(NCc1cnco1)Nc1ccc(S(=O)(=O)c2ccc(OC(F)(F)F)cc2)cc1` [1-Oxazol-5-ylmethyl-3-[4-(4-trifluoromethoxy-benzenesulfonyl)-phenyl]-urea], the figure is 100 to 2000 nM. Consider `O=C(NCc1cnco1)Nc1ccc(S(=O)(=O)c2cnccn2)cc1` [1-Oxazol-5-ylmethyl-3-[4-(pyrazine-2-sulfonyl)-phenyl]-urea], for which the EC50 (Table B-5) is 100 to 2000 nM. `O=C(NCc1cnco1)Nc1ccc(S(=O)(=O)c2cccnc2)cc1` [1-Oxazol-5-ylmethyl-3-[4-(pyridine-3-sulfonyl)-phenyl]-urea] displayed a concentration for a half-maximal effect (EC50) (Table B-5) of 100 to 2000 nM. Turning to `O=C(NCc1cnco1)Nc1ccc(S(=O)(=O)c2ncccn2)cc1` [1-Oxazol-5-ylmethyl-3-[4-(pyrimidine-2-sulfonyl)-phenyl]-urea], the EC50 (Table B-5) was 5000 to 20000 nM. Consider `O=C(NCc1cnco1)Nc1ccc(S(=O)(=O)c2nccs2)cc1` [1-Oxazol-5-ylmethyl-3-[4-(thiazole-2-sulfonyl)-phenyl]-urea], for which the EC50 (Table B-5) was in the range of 100 to 2000 nM. For the compound `Cc1ccccc1S(=O)(=O)c1ccc(NC(=O)NCc2cnco2)cc1` [1-Oxazol-5-ylmethyl-3-[4-(toluene-2-sulfonyl)-phenyl]-urea], the EC50 (Table B-5) lay within 100 to 2000 nM. In the case of `Cc1cccc(S(=O)(=O)c2ccc(NC(=O)NCc3cnco3)cc2)c1` [1-Oxazol-5-ylmethyl-3-[4-(toluene-3-sulfonyl)-phenyl]-urea], the EC50 (Table B-5) is 100 to 2000 nM. On the same count and under the same terms, as for `Cc1ccc(S(=O)(=O)c2ccc(NC(=O)NCc3cnco3)cc2)cc1` [1-Oxazol-5-ylmethyl-3-[4-(toluene-4-sulfonyl)-phenyl]-urea], the figure is 2000 to 5000 nM; as for `O=C(NCc1cnco1)Nc1ccc(S(=O)(=O)C2CCN(C3CCOCC3)CC2)cc1` [1-Oxazol-5-ylmethyl-3-{4-[1-(tetrahydro-pyran-4-yl)-piperidine-4-sulfonyl]-phenyl}-urea], 100 to 2000 nM. Under “Table B-6”, `O=C(NCc1ccncc1)Nc1ccc(S(=O)(=O)c2cncs2)cc1` [1-Pyridin-4-ylmethyl)-3-(4-(thiazol-5-ylsulfonyl)phenyl)urea] showed an EC50 of 100 to 2000 nM. Take `O=C(NCc1ccncc1)Nc1ccc(S(=O)(=O)c2ccccc2OC(F)(F)F)cc1` [1-Pyridin-4-ylmethyl-3-[4-(2-trifluoromethoxy-benzenesulfonyl)-phenyl]-urea]: under “Table B-6”, the EC50 is less than 100 nM. For the compound `O=C(NCc1ccncc1)Nc1ccc(S(=O)(=O)c2ccccc2C(F)(F)F)cc1` [1-Pyridin-4-ylmethyl-3-[4-(2-trifluoromethyl-benzenesulfonyl)-phenyl]-urea], the EC50 (Table B-6) was 100 to 2000 nM. Turning to `O=C(NCc1ccncc1)Nc1ccc(S(=O)(=O)c2cccc(OC(F)(F)F)c2)cc1` [1-Pyridin-4-ylmethyl-3-[4-(3-trifluoromethoxy-benzenesulfonyl)-phenyl]-urea], the EC50 (Table B-6) was less than 100 nM. For `O=C(NCc1ccncc1)Nc1ccc(S(=O)(=O)c2ccc(OC(F)(F)F)cc2)cc1` [1-Pyridin-4-ylmethyl-3-[4-(4-trifluoromethoxy-benzenesulfonyl)-phenyl]-urea], the EC50 (Table B-6) was 100 to 2000 nM. `O=C(NCc1ccncc1)Nc1ccc(S(=O)(=O)c2ncccn2)cc1` [1-Pyridin-4-ylmethyl-3-[4-(pyrimidine-2-sulfonyl)-phenyl]-urea] returned an EC50 (Table B-6) of 2000 to 5000 nM.

As for `Cc1ccccc1S(=O)(=O)c1ccc(NC(=O)NCc2ccncc2)cc1` [1-Pyridin-4-ylmethyl-3-[4-(toluene-2-sulfonyl)-phenyl]-urea], the EC50 (Table B-6) was 100 to 2000 nM.

In turn, `Cc1cccc(S(=O)(=O)c2ccc(NC(=O)NCc3ccncc3)cc2)c1` [1-Pyridin-4-ylmethyl-3-[4-(toluene-3-sulfonyl)-phenyl]-urea] came in with an EC50 (Table B-6) of 100 to 2000 nM. Regarding `Cc1ccc(S(=O)(=O)c2ccc(NC(=O)NCc3ccncc3)cc2)cc1` [1-Pyridin-4-ylmethyl-3-[4-(toluene-4-sulfonyl)-phenyl]-urea], under “Table B-6”, the EC50 is less than 100 nM. Take `O=C(NCc1ccncc1)Nc1ccc(S(=O)(=O)N2Cc3ccccc3C2)cc1` [1-[4-(1,3-Dihydro-isoindole-2-sulfonyl)-phenyl]-3-pyridin-4-ylmethyl-urea]: the EC50 (Table B-2) lay within 100 to 2000 nM. Regarding `Cc1ccc2c(-c3ccc(NC(=O)NCc4cn[nH]c4)cc3)nn(C)c2c1` [1-[4-(1,6-Dimethyl-1H-indazol-3-yl)-phenyl]-3-(1H-pyrazol-4-ylmethyl)-urea], the concentration giving a half-maximal response (EC50) (Table B-4) was in the range of 100 to 2000 nM. Take `Cc1ccc2c(-c3ccc(NC(=O)NCc4cnco4)cc3)nn(C)c2c1` [1-[4-(1,6-Dimethyl-1H-indazol-3-yl)-phenyl]-3-oxazol-5-ylmethyl-urea]: the EC50 (Table B-5) was in the range of 100 to 2000 nM.

Consider `Cc1ccc2c(-c3ccc(NC(=O)NCc4ccncc4)cc3)nn(C)c2c1` [1-[4-(1,6-Dimethyl-1H-indazol-3-yl)-phenyl]-3-pyridin-4-ylmethyl-urea], for which the EC50 (Table B-6) was 100 to 2000 nM.

In turn, `CC(C)CN1CCC(S(=O)(=O)c2ccc(NC(=O)NCc3cn[nH]c3)cc2)CC1` [1-[4-(1-Isobutyl-piperidine-4-sulfonyl)-phenyl]-3-(1H-pyrazol-4-ylmethyl)-urea] showed an EC50 (Table B-4) of 2000 to 5000 nM.

For the compound `CC(C)CN1CCC(S(=O)(=O)c2ccc(NC(=O)NCc3ccncc3)cc2)CC1` [1-[4-(1-Isobutyl-piperidine-4-sulfonyl)-phenyl]-3-pyridin-4-ylmethyl-urea], the EC50 (Table B-6) was in the range of 2000 to 5000 nM. For `CC(C)n1cc(S(=O)(=O)c2ccc(NC(=O)NCc3cn[nH]c3)cc2)cn1` [1-[4-(1-Isopropyl-1H-pyrazole-4-sulfonyl)-phenyl]-3-(1H-pyrazol-4-ylmethyl)-urea], the EC50 (Table B-4) was less than 100 nM. Take `CC(C)n1cc(S(=O)(=O)c2ccc(NC(=O)NCc3cnco3)cc2)cn1` [1-[4-(1-Isopropyl-1H-pyrazole-4-sulfonyl)-phenyl]-3-oxazol-5-ylmethyl-urea]: the EC50 (Table B-5) lay in the range of 100 to 2000 nM. `CC(C)n1cc(S(=O)(=O)c2ccc(NC(=O)NCc3ccncc3)cc2)cn1` [1-[4-(1-Isopropyl-1H-pyrazole-4-sulfonyl)-phenyl]-3-pyridin-4-ylmethyl-urea]: where the note is “Table B-6”, the EC50 is less than 100 nM.

The compound `CC(C)N1CCC(S(=O)(=O)c2ccc(NC(=O)NCc3cn[nH]c3)cc2)CC1` [1-[4-(1-Isopropyl-piperidine-4-sulfonyl)-phenyl]-3-(1H-pyrazol-4-ylmethyl)-urea] showed an EC50 (Table B-4) of 2000 to 5000 nM. The compound `CC(C)N1CCC(S(=O)(=O)c2ccc(NC(=O)NCc3ccncc3)cc2)CC1` [1-[4-(1-Isopropyl-piperidine-4-sulfonyl)-phenyl]-3-pyridin-4-ylmethyl-urea] yielded an EC50 (Table B-6) of 100 to 2000 nM. In turn, `Cn1nc(-c2ccc(NC(=O)NCc3cn[nH]c3)cc2)c2ccccc21` [1-[4-(1-Methyl-1H-indazol-3-yl)-phenyl]-3-(1H-pyrazol-4-ylmethyl)-urea] yielded an EC50 (Table B-4) of 100 to 2000 nM. Take `Cn1nc(-c2ccc(NC(=O)NCc3cnco3)cc2)c2ccccc21` [1-[4-(1-Methyl-1H-indazol-3-yl)-phenyl]-3-oxazol-5-ylmethyl-urea]: the EC50 (Table B-5) lay within 2000 to 5000 nM.

For `Cn1nc(-c2ccc(NC(=O)NCc3ccncc3)cc2)c2ccccc21` [1-[4-(1-Methyl-1H-indazol-3-yl)-phenyl]-3-pyridin-4-ylmethyl-urea], under “Table B-6”, the EC50 lay in the range of 100 to 2000 nM. Compound `Cn1cc(S(=O)(=O)c2ccc(NC(=O)NCc3cn[nH]c3)cc2)cn1` [1-[4-(1-Methyl-1H-pyrazole-4-sulfonyl)-phenyl]-3-(1H-pyrazol-4-ylmethyl)-urea] showed an EC50 (Table B-4) of 100 to 2000 nM. As for `Cn1cc(S(=O)(=O)c2ccc(NC(=O)NCc3cnco3)cc2)cn1` [1-[4-(1-Methyl-1H-pyrazole-4-sulfonyl)-phenyl]-3-oxazol-5-ylmethyl-urea], the EC50 (Table B-5) fell in the range of 2000 to 5000 nM. In turn, `Cn1cc(S(=O)(=O)c2ccc(NC(=O)NCc3ccncc3)cc2)cn1` [1-[4-(1-Methyl-1H-pyrazole-4-sulfonyl)-phenyl]-3-pyridin-4-ylmethyl-urea] came in with an EC50 (Table B-6) of 100 to 2000 nM. `Cn1nc(-c2ccc(NC(=O)NCc3cn[nH]c3)cc2)c2cccnc21` [1-[4-(1-Methyl-1H-pyrazolo[3,4-b]pyridin-3-yl)-phenyl]-3-(1H-pyrazol-4-ylmethyl)-urea] yielded an EC50 (Table B-4) of 100 to 2000 nM. For `Cn1nc(-c2ccc(NC(=O)NCc3cnco3)cc2)c2cccnc21` [1-[4-(1-Methyl-1H-pyrazolo[3,4-b]pyridin-3-yl)-phenyl]-3-oxazol-5-ylmethyl-urea], the EC50 (Table B-5) lay in the range of 2000 to 5000 nM. `Cn1nc(-c2ccc(NC(=O)NCc3ccncc3)cc2)c2cccnc21` [1-[4-(1-Methyl-1H-pyrazolo[3,4-b]pyridin-3-yl)-phenyl]-3-pyridin-4-ylmethyl-urea]: the concentration for a half-maximal effect (EC50) (Table B-6) was 5000 to 20000 nM.

`Cn1nc(-c2ccc(NC(=O)NCc3cn[nH]c3)cc2)c2ncccc21` [1-[4-(1-Methyl-1H-pyrazolo[4,3-b]pyridin-3-yl)-phenyl]-3-(1H-pyrazol-4-ylmethyl)-urea]: the EC50 (Table B-4) fell in the range of 100 to 2000 nM. `Cn1nc(-c2ccc(NC(=O)NCc3cnco3)cc2)c2ncccc21` [1-[4-(1-Methyl-1H-pyrazolo[4,3-b]pyridin-3-yl)-phenyl]-3-oxazol-5-ylmethyl-urea]: the EC50 (Table B-5) was in the range of 2000 to 5000 nM. Regarding `Cn1nc(-c2ccc(NC(=O)NCc3ccncc3)cc2)c2ncccc21` [1-[4-(1-Methyl-1H-pyrazolo[4,3-b]pyridin-3-yl)-phenyl]-3-pyridin-4-ylmethyl-urea], where the note is “Table B-6”, the concentration for a half-maximal effect (EC50) was 100 to 2000 nM. `Cn1nc(-c2ccc(NC(=O)NCc3cn[nH]c3)cc2)c2cnccc21` [1-[4-(1-Methyl-1H-pyrazolo[4,3-c]pyridin-3-yl)-phenyl]-3-(1H-pyrazol-4-ylmethyl)-urea]: for the setting “Table B-4”, the EC50 is 2000 to 5000 nM. Regarding `Cn1nc(-c2ccc(NC(=O)NCc3cnco3)cc2)c2cnccc21` [1-[4-(1-Methyl-1H-pyrazolo[4,3-c]pyridin-3-yl)-phenyl]-3-oxazol-5-ylmethyl-urea], the EC50 (Table B-5) lay in the range of 5000 to 20000 nM.
